Experimental data from patent US10254273B2, “Method and kit for assessment of sodium channel-related anti- or pro-arrhythmic potential of compounds” (RUPRECHT-KARLS-UNIVERSITAET HEIDELBERG, priority 2014, dated 2019).

Biological target: T1, cardiac sodium channels Nav1.5 in the intercalated discs of cardiomyocytes (Mus musculus, UniProt Q9JJV9)
T1 construct: The heart was harvested and perfused in the Langendorff system; endogenous in cells; host or cells: primary adult mouse cardiomyocytes isolated from heart by Langendorff perfusion
T1 sequence (Q9JJV9 whole entry, the tested form may be a part): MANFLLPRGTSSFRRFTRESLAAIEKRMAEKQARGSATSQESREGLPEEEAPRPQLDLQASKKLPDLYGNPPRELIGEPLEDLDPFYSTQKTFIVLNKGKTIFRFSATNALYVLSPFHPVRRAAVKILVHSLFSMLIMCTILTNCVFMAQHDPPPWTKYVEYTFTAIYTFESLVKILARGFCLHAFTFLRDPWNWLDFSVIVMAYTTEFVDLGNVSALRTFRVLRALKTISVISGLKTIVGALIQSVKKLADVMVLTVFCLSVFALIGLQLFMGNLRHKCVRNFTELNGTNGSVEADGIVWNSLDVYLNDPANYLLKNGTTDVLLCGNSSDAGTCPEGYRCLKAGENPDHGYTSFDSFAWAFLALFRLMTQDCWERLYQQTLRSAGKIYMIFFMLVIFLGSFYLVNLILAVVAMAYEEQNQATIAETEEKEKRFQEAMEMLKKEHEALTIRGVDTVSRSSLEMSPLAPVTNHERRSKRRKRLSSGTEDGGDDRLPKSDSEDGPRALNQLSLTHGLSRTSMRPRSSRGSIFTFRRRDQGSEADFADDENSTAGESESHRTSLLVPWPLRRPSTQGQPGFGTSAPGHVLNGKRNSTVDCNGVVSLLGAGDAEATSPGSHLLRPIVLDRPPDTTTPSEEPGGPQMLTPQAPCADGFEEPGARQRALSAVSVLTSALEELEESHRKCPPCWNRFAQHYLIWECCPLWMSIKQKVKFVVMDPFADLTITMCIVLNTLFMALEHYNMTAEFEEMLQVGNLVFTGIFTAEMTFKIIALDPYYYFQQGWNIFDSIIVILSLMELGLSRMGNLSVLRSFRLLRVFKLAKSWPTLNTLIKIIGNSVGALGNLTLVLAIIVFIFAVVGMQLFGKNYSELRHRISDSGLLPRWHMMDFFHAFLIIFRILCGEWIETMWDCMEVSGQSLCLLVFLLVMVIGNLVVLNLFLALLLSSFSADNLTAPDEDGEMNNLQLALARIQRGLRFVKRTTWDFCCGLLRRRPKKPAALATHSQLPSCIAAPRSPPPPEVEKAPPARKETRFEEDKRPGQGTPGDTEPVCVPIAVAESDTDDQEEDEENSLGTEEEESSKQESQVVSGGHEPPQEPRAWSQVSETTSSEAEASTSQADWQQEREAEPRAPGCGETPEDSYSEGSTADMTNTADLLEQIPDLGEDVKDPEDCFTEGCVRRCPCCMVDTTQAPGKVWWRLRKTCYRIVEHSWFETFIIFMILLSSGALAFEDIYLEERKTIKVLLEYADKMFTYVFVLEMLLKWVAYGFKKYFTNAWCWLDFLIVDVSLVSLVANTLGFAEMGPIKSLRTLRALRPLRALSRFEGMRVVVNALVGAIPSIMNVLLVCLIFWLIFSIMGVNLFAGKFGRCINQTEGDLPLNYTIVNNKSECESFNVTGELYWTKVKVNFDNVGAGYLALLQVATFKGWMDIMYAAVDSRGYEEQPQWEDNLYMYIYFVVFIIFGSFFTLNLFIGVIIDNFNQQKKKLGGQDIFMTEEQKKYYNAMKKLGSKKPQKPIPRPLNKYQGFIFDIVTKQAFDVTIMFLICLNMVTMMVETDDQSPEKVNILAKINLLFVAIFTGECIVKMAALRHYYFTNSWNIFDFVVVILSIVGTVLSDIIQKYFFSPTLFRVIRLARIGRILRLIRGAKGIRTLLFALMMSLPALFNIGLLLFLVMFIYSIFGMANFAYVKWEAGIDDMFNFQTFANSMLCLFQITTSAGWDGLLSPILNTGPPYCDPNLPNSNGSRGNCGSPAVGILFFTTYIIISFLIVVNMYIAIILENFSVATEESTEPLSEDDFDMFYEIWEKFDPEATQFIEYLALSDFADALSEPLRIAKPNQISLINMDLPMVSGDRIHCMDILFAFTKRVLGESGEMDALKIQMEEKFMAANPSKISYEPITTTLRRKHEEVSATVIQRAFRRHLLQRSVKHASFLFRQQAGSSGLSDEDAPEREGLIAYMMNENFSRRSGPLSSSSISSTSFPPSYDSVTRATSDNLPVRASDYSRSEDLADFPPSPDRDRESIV
Experiment: Nav1.5 density change in intercalated discs of cardiomyocytes (immunocytochemistry, confocal microscopy)
Type: cell-based
Conditions: test compound at a concentration of 100 μM or higher vs. untreated sample, p<0.05
Description: Briefly, the mice were injected with 200 IU heparin i.p. prior to sacrifice. The thoracic chamber was opened and a cannula with perfusion solution was inserted from the atria. The heart was harvested and perfused in the Langendorff system with Perfusion Buffer at 37° C. for 5 min, followed by Digestion Buffer until the heart muscle was pale and some signs of extracellular matrix dissociation appeared. The heart was perfused for additional 5 min with Perfusion Buffer to stop the dissociation. The cardiomyocytes were mechanically dissociated in TB-A and then plated on ECM-coated (Sigma cat. no. E-1270) petri dish (Zell-Kontakt cat. no. 5160-30). […]
Confocal images of red and green immunofluorescence of stained cardiomyocytes were acquired, e.g. on a Leica confocal laser scanning unit TCS NT, which is coupled to a Leica DM IRB microscope. […] Fluorescence signals of Nav1.5 staining were recorded at 20%, 50% and 80% laser intensity, and fluorescence signals of cadherin was recorded at 80% laser intensity to generate the Region of Interest (ROI) (modified from Yampolsky et al., 2010, a). All images were digitally saved and later processed with Image) (NIH, Bethesda, Md., USA) software using proprietary quantification methods and standard Image) plug-ins.
ROI were set as defined by the fluorescence signals of the cadherin staining, which represented the intercalated discs. […]

For `O=C(NCC1CCCCN1)c1cc(OCC(F)(F)F)ccc1OCC(F)(F)F` (stereo not shown) [flecainide], the “change of the Nav1.5 density in comparison to the untreated sample” value was “significant change”.
